Here are results for four compounds from DBAASP.

Converted amounts (≈) assume the structure as drawn. “And” between values parts separate entries of the source, which are not always exact repeats. Identical values can stand only once.

Common to all, as to assay: ≥ marks a high value that may be exact or a test limit, other limits are often not marked, values filed in µg/mL are converted to µM
For assay [1], the system named is Pseudomonas aeruginosa ATCC 27853.
Assay [2] has as its system Staphylococcus aureus ATCC 49476.
The subject of assay [3] is Candida albicans.
For assay [4], the system named is Staphylococcus aureus MR.
The test system of assay [5] is Escherichia coli.
Assay [6] deals with Salmonella sp.
Assay [7] concerns Yersinia enterocolitica.
The subject of assay [8] is Staphylococcus aureus ATCC 29213.
In assay [9] the test system is Escherichia coli ATCC 25922.
Assay [10] has as its system Salmonella enterica subsp. enterica serovar Enteritidis.
Assay [11] deals with Staphylococcus aureus ATCC 43300.
In assay [12] the test system is Klebsiella pneumoniae KP2.
Assay [13] deals with Staphylococcus aureus USA 100.
Assay [14] concerns Acinetobacter baumannii AB3.
Assay [15] deals with Acinetobacter baumannii AB1.
The subject of assay [16] is Pseudomonas aeruginosa TRPA 111.
In assay [17] the test system is Pseudomonas aeruginosa TRPA 108.
The test system of assay [18] is Staphylococcus aureus USA 300.
The subject of assay [19] is Acinetobacter baumannii AB2.
Assay [20] has as its system Klebsiella pneumoniae KP4.
The test system of assay [21] is Staphylococcus aureus 4003.
The test system of assay [22] is Klebsiella pneumoniae KP1.
Assay [23] relates to Klebsiella pneumoniae KP3.
Assay [24] deals with Pseudomonas aeruginosa PAO1.
Assay [25] deals with Acinetobacter baumannii ATCC 19606.
Assay [26] has as its system Cryptococcus neoformans ATCC 208821.
Assay [27] concerns Candida albicans ATCC 90028.
In assay [28] the test system is Klebsiella pneumoniae ATCC 700603.

As usually defined, the MIC is the lowest concentration found to suppress growth. For the compound `CC[C@H](C)[C@H](NC(=O)[C@H](C)NC(=O)[C@H](CCCCN)NC(=O)CNC(=O)[C@H](C)NC(=O)[C@H](CO)NC(=O)[C@H](Cc1ccccc1)NC(=O)[C@H](CC(C)C)NC(=O)CNC(=O)CNC(=O)[C@@H](NC(=O)[C@@H](NC(=O)[C@H](Cc1cnc[nH]1)NC(=O)[C@@H](N)Cc1cnc[nH]1)[C@@H](C)CC)[C@@H](C)CC)C(=O)N[C@@H](Cc1cnc[nH]1)C(=O)N[C@@H](CCCN=C(N)N)C(=O)N[C@@H](CC(C)C)C(=O)N[C@H](C(=O)N[C@@H](CCCN=C(N)N)C(=O)N[C@@H](CCCN=C(N)N)C(=O)N[C@@H](CCCN=C(N)N)C(=O)N[C@@H](CCCN=C(N)N)C(=O)N[C@@H](CCCN=C(N)N)C(=O)O)[C@@H](C)CC` [HHIIGGLFSAGKAIHRLIRRRRR], the MIC was 188 µM (≈ 512 µg/mL) in assay [1], no less than 188 µM in assay [2], 47 µM (≈ 128 µg/mL) in assay [3] and no less than 188 µM in assay [4].
Turning to `CC[C@H](C)[C@H](NC(=O)[C@H](CCCCN)NC(=O)[C@@H](N)CCCN=C(N)N)C(=O)N[C@@H](CCCN=C(N)N)C(=O)N[C@@H](CCCN=C(N)N)C(=O)N[C@@H](CCCCN)C(=O)N[C@@H](Cc1c[nH]c2ccccc12)C(=O)N[C@@H](CCCCN)C(=O)N[C@@H](CCCN=C(N)N)C(N)=O` [RKIRRKWKR], the MIC is greater than 37.7 µM in assay [5]; no less than 37.7 µM in [6]; no less than 37.7 µM in assay [7]; greater than 37.7 µM in assay [8]; greater than 37.7 µM in assay [9]; no less than 37.7 µM in assay [10]. Besides, in [11], the MIC is greater than 37.7 µM.
Take `CC(C)[C@H](NC(=O)[C@H](Cc1c[nH]c2ccccc12)NC(=O)[C@H](CCCN=C(N)N)NC(=O)[C@H](CCCN=C(N)N)NC(=O)[C@@H](NC(=O)[C@@H](NC(=O)[C@H](CCCN=C(N)N)NC(=O)[C@@H](NC(=O)[C@@H](NC(=O)[C@H](CCCN=C(N)N)NC(=O)[C@H](CCCN=C(N)N)NC(=O)[C@@H](NC(=O)[C@H](Cc1c[nH]c2ccccc12)NC(=O)[C@H](CCCN=C(N)N)NC(=O)[C@H](CCCN=C(N)N)NC(=O)[C@@H](NC(=O)[C@H](CCCN=C(N)N)NC(=O)[C@H](CCCN=C(N)N)NC(=O)[C@@H](NC(=O)[C@H](Cc1c[nH]c2ccccc12)NC(=O)[C@H](CCCN=C(N)N)NC(=O)[C@@H](N)CCCN=C(N)N)C(C)C)C(C)C)C(C)C)C(C)C)C(C)C)C(C)C)C(C)C)C(=O)N[C@@H](CCCN=C(N)N)C(=O)N[C@@H](CCCN=C(N)N)C(=O)O` [RRWVRRVRRWVRRVVRVVRRWVRR]: the MIC is 9.41 µM (≈ 32 µg/mL) in assay [12]; 1.76 µM (≈ 6 µg/mL) in [13]; 1.76 µM (≈ 6 µg/mL) in assay [14]; 1.47 µM (≈ 5 µg/mL) in assay [15]; 0.882 µM (≈ 3 µg/mL) in [16]; 1.18 µM (≈ 4 µg/mL) in assay [17]. Besides, the MIC in [18] was 1.76 µM and 3.2 µM; in assay [19] it was 3.24 µM (≈ 11 µg/mL); in assay [20] it was 4.71 µM (≈ 16 µg/mL); in assay [21], 1.47 µM (≈ 5 µg/mL); in assay [22] it was 2.94 µM (≈ 10 µg/mL); in [23], 2.94 µM (≈ 10 µg/mL). In addition, the minimal inhibitory concentration (MIC) in assay [24] was 1.76 µM and 3.5 µM.
As to `NC(=O)CC[C@H](NC(=O)[C@H](CCCN=C(N)N)NC(=O)[C@H](CCCN=C(N)N)NC(=O)[C@H](CS)NC(=O)[C@H](CCC(N)=O)NC(=O)[C@H](Cc1cnc[nH]1)NC(=O)[C@H](CO)NC(=O)[C@H](CCCN=C(N)N)NC(=O)[C@H](Cc1ccccc1)NC(=O)[C@H](Cc1cnc[nH]1)NC(=O)[C@H](CCCN=C(N)N)NC(=O)[C@H](Cc1cnc[nH]1)NC(=O)[C@H](Cc1cnc[nH]1)NC(=O)[C@@H](N)CO)C(=O)N[C@@H](CCCN=C(N)N)C(=O)N[C@@H](CO)C(=O)N[C@@H](CC(N)=O)C(=O)N[C@@H](CO)C(=O)N[C@@H](CS)C(=O)N[C@@H](CC(=O)O)C(=O)N[C@@H](CCCN=C(N)N)C(=O)O` [SHHRHFRSHQCRRQRSNSCDR], the MIC was greater than 11.9 µM in assay [1]; greater than 11.9 µM in assay [25]; greater than 11.9 µM in assay [9]; greater than 11.9 µM in assay [11]; 1.49 µM (≈ 4 µg/mL) in assay [26]; 11.9 µM (≈ 32 µg/mL) in assay [27]. In addition, the MIC in [28] is greater than 11.9 µM.
